According to patent publication US20240239775A1, “FXR REGULATOR, PREPARATION METHOD THEREFOR, PHARMACEUTICAL COMPOSITION THEREOF AND USE THEREOF” (QINGDAO RUIJI MEDICAL TECHNOLOGY CO., LTD., priority 2021, published 2024):

Tests used:
FXR = biological target: T1, FXR (Homo sapiens, UniProt Q96RI1); experiment: FXR antagonist screening by TR-FRET (LanthaScreen TR-FRET FXR co-activation assay kit); format: biochemical; conditions: Table 1.1, FXR antagonistic activity; TR-FRET with CDCA; geometric means of at least two independent runs
T1 construct: 5 μL of 20 nM FXR-LBD Complete Coregulator buffer G; purchased ThermoFisher PV4833
T1 sequence (Q96RI1 262-486 limits assumed): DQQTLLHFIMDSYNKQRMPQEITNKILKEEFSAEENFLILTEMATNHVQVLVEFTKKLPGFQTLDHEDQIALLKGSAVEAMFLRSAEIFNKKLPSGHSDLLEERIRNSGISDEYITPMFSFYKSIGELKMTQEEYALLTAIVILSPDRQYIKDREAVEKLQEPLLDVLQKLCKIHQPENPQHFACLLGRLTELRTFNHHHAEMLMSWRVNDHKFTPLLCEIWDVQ
In short: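 FXR-LBD (20 nM working solution) mixed with compound, CDCA (200 μM working solution) as agonist, Fluorescein-SRC2-2 and Tb-anti-GST antibody in Coregulator buffer G; 10 h at room temperature. Coactivator recruitment read by TR-FRET, triplicate wells.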

Cc1c(C(=O)O)oc2ccc(S(=O)(=O)N(CCc3ccccc3)c3ccc(CN4CCN(C(=O)OC(C)(C)C)CC4)cc3)cc12 [Example F27-S76, 3-methyl-5-(N-(4-((4-(tert-butoxycarbonyl)piperazin-1-yl)methyl)phenyl)-N-phenethylsulfonamide)benzofuran-2-carboxylic acid]
melting point: 234 to 235 °C | IC50 (FXR): 10 to 50 µM

Cc1c(C(=O)O)oc2ccc(S(=O)(=O)N(CCc3ccccc3)c3ccccc3N3CCN(C(=O)OC(C)(C)C)CC3)cc12 [Example F27-S77, 3-methyl-5-(N-(2-(4-(tert-butoxycarbonyl)piperazin-1-yl)phenyl)-N-phenethylsulfamoyl)benzofuran-2-carboxylic acid]
melting point: 168 to 169 °C | IC50 (FXR): 0.1 to 10 µM

Cc1c(C(=O)O)oc2ccc(S(=O)(=O)N(CCc3ccccc3)c3cccc(N4CCN(C)CC4)c3)cc12 [Example F27-S78, 3-methyl-5-(N-(3-(4-methylpiperazin-1-yl)phenyl)-N-phenethylsulfamoyl)benzofuran-2-carboxylic acid]
melting point: 232 to 233 °C | IC50 (FXR): 50 to 100 µM

Cc1c(C(=O)O)oc2ccc(S(=O)(=O)N(CCc3ccccc3)Cc3ccc(N4CCOCC4)cc3)cc12 [Example F27-S79]
melting point: > 380 °C (dec.) | IC50 (FXR): 50 to 100 µM

Cc1c(C(=O)O)oc2ccc(S(=O)(=O)N(CCc3ccccc3)Cc3ccc(-c4ccccc4)cc3)cc12 [Example F27-S82, 3-methyl-5-(N-([1,1′-biphenyl]-4-ylmethyl)-N-phenethylsulfamoyl)benzofuran-2-carboxylic acid]
melting point: > 380 °C (dec.) | IC50 (FXR): 50 to 100 µM

Cc1c(C(=O)O)oc2ccc(S(=O)(=O)N(CCc3ccccc3)Cc3ccc(-c4ccccc4C#N)cc3)cc12 [Example F27-S83]
melting point: 197 to 198 °C | IC50 (FXR): 10 to 50 µM

Cc1c(C(=O)O)oc2ccc(S(=O)(=O)N(CCc3ccccc3)Cc3ccc(-c4ccccc4C(=O)OC(C)(C)C)cc3)cc12 [Example F27-S84, 3-methyl-5-(N-((2′-(tert-butoxycarbonyl)-[1,1′-biphenyl]-4-yl)methyl)-N-phenethylsulfamoyl)benzofuran-2-carboxylic acid]
melting point: 197 to 198 °C | IC50 (FXR): 10 to 50 µM

Cc1c(C(=O)O)oc2ccc(S(=O)(=O)N(CCc3ccccc3)Cc3ccc(C(=O)c4ccccc4)cc3)cc12 [Example F27-S85, 3-methyl-5-(N-(4-benzoylbenzyl)-N-phenethylsulfamoyl)benzofuran-2-carboxylic acid]
melting point: 192 to 193 °C | IC50 (FXR): 10 to 50 µM

Cc1c(C(=O)O)oc2ccc(S(=O)(=O)N(CCc3ccccc3)Cc3cccc(N4CCN(C(=O)OC(C)(C)C)CC4)c3)cc12 [Example F27-S88, 3-methyl-5-(N-(3-(4-(tert-butoxycarbonyl)piperazin-1-yl)benzyl)-N-phenethylsulfamoyl)benzofuran-2-carboxylic acid]
melting point: 104 to 105 °C | IC50 (FXR): 0.1 to 10 µM

Cc1c(C(=O)O)oc2ccc(S(=O)(=O)N(CCc3ccccc3)c3ccccc3N3CCNCC3)cc12 [Example F27-S89, 3-methyl-5-(N-phenethyl-N-(2-(piperazin-1-yl)phenyl)sulfamoyl)benzofuran-2-carboxylic acid]
melting point: 172 to 173 °C | IC50 (FXR): 50 to 100 µM

Cc1c(C(=O)O)oc2ccc(S(=O)(=O)N(CCc3ccccc3)c3ccccc3N3CC[N+](C)(C)CC3)cc12 [Example F27-S90, 4-(2-((2-carboxy-3-methyl-N-phenethylbenzofuran)-5-sulfonylamino)phenyl)-1,1-dimethylpiperazin-1-ium]
melting point: 246 to 247 °C | IC50 (FXR): 50 to 100 µM

CC(=O)N1CCN(c2ccccc2N(CCc2ccccc2)S(=O)(=O)c2ccc3oc(C(=O)O)c(C)c3c2)CC1 [Example F27-S91, 3-methyl-5-(N-(2-(4-acetylpiperazin-1-yl)phenyl)-N-phenethylsulfamoyl)benzofuran-2-carboxylic acid]
melting point: 196 to 197 °C | IC50 (FXR): 50 to 100 µM

Cc1c(C(=O)O)oc2ccc(S(=O)(=O)N(CCc3ccccc3)c3ccccc3N3CCN(C(=O)N(C)C)CC3)cc12 [Example F27-S92, 3-methyl-5-(N-(2-(4-(dimethylcarbamoyl)piperazin-1-yl)phenyl)-N-phenethylsulfamoyl)benzofuran-2-carboxylic acid]
melting point: > 380 °C (dec.) | IC50 (FXR): 10 to 50 µM

Cc1c(C(=O)O)oc2ccc(S(=O)(=O)N(CCc3ccccc3)c3ccccc3N3CCN(S(C)(=O)=O)CC3)cc12 [Example F27-S93, 3-methyl-5-(N-(2-(4-(methylsulfonyl)piperazin-1-yl)phenyl)-N-phenethylsulfamoyl)benzofuran-2-carboxylic acid]
melting point: 144 to 145 °C | IC50 (FXR): 10 to 50 µM

Cc1c(C(=O)O)oc2ccc(S(=O)(=O)N(CCc3ccccc3)c3ccccc3N3CCN(C(=O)CC(C)(C)C)CC3)cc12 [Example F27-S94]
melting point: 191 to 192 °C | IC50 (FXR): 0.1 to 10 µM

Cc1c(C(=O)O)oc2ccc(S(=O)(=O)N(CCc3ccccc3)c3ccccc3N3CCN(Cc4ccccc4)CC3)cc12 [Example F27-S95]
melting point: 161 to 162 °C | IC50 (FXR): 10 to 50 µM

Cc1c(C(=O)O)oc2ccc(S(=O)(=O)N(CCc3ccccc3)Cc3ccccc3N3CCNCC3)cc12 [Example F27-S97, 3-methyl-5-(N-(2-(piperazin-1-yl)benzyl)-N-phenethylsulfamoyl)benzofuran-2-carboxylic acid]
melting point: 223 to 224 °C | IC50 (FXR): 50 to 100 µM

Cc1c(C(=O)O)oc2ccc(S(=O)(=O)N(CCc3ccccc3)Cc3ccccc3N3CC[N+](C)(C)CC3)cc12 [Example F27-S99, 4-(2-(((2-carboxy-3-methyl-N-phenethylbenzofuran)-5-sulfonamido)methyl)phenyl)-1,1-dimethylpiperazin-1-ium]
melting point: 143 to 144 °C | IC50 (FXR): 50 to 100 µM

CC(=O)N1CCN(c2ccccc2CN(CCc2ccccc2)S(=O)(=O)c2ccc3oc(C(=O)O)c(C)c3c2)CC1 [Example F27-S100, 3-methyl-5-(N-(2-(4-acetylpiperazin-1-yl)benzyl)-N-phenethylsulfamoyl)benzofuran-2-carboxylic acid]
melting point: 236 to 237 °C | IC50 (FXR): 10 to 50 µM

Cc1c(C(=O)O)oc2ccc(S(=O)(=O)N(CCc3ccccc3)Cc3ccccc3N3CCN(S(C)(=O)=O)CC3)cc12 [Example F27-S102, 3-methyl-5-(N-(2-(4-(methylsulfonyl)piperazin-1-yl)benzyl)-N-phenethylsulfamoyl)benzofuran-2-carboxylic acid]
melting point: 150 to 151 °C | IC50 (FXR): 50 to 100 µM

Cc1c(C(=O)O)oc2ccc(S(=O)(=O)N(CCc3ccccc3)Cc3ccccc3N3CCN(C(=O)CC(C)(C)C)CC3)cc12 [Example F27-S103]
melting point: 190 to 191 °C | IC50 (FXR): 10 to 50 µM

Cc1c(C(=O)O)oc2ccc(S(=O)(=O)N(CCc3ccccc3)Cc3ccccc3N3CCN(Cc4ccccc4)CC3)cc12 [Example F27-S104, 3-methyl-5-(N-(2-(4-benzylpiperazin-1-yl)benzyl)-N-phenethylsulfamoyl)benzofuran-2-carboxylic acid]
melting point: 154 to 155 °C | IC50 (FXR): 50 to 100 µM
